Measured values published in paper PMC3639963, “A New Class of Small Molecule Inhibitor of BMP Signaling” (PLoS ONE, 2013).

Experiments:
Assay in all cases: Nanosyn kinase profiling
Assay type in all cases: biochemical
Settings in all cases: read-out: Percentage inhibition; for inhibition at 0.1 µM: 0.1 µM inhibitor; for inhibition at 1 µM: 1 µM inhibitor
[1] = target: T1, AKT2 (Homo sapiens, UniProt P31751)
T1 construct: purchased Nanosyn (enzymatic panel); SGC in-house recombinant human kinases (DSF panel); Invitrogen (ALK1-6)
T1 sequence (P31751 whole entry): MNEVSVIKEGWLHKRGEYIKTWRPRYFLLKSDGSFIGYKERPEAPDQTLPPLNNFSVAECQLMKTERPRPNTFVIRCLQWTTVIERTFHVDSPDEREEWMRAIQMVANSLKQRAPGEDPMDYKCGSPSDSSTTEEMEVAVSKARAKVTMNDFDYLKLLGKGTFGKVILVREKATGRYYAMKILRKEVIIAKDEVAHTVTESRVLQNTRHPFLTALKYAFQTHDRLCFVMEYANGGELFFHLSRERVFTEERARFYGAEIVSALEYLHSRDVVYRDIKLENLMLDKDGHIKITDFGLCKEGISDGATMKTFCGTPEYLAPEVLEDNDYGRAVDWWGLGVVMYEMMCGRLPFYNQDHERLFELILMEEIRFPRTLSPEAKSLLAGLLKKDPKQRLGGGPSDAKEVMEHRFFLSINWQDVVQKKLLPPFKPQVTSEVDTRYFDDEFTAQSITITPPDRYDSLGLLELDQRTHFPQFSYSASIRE
In short: (§1)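 Percent inhibition of each kinase was measured with the inhibitor at 0.1 µM and at 1 µM, as part of a 200-kinase human selectivity panel.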

[2] = target: T2, GRK7 (Homo sapiens, UniProt Q8WTQ7)
T2 construct: purchased Nanosyn (enzymatic panel); SGC in-house recombinant human kinases (DSF panel); Invitrogen (ALK1-6)
T2 sequence (Q8WTQ7 1-553): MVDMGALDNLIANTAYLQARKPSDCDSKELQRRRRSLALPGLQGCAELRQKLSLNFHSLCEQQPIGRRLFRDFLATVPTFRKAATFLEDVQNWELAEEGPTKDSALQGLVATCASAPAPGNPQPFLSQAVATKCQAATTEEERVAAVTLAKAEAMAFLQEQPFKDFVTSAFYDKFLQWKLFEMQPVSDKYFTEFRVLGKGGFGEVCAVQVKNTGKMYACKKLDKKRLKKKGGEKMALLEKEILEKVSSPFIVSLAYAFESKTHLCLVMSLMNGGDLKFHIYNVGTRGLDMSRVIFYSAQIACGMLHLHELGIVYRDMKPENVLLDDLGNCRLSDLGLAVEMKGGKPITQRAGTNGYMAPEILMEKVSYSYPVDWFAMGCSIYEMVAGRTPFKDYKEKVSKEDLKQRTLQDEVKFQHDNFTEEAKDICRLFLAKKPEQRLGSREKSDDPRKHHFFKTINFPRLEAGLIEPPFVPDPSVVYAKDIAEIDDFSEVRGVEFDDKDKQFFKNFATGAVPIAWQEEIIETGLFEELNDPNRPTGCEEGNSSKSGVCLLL
In short: as §1

[3] = target: T3, JAK3 (Homo sapiens, UniProt P52333)
T3 construct: purchased Nanosyn (enzymatic panel); SGC in-house recombinant human kinases (DSF panel); Invitrogen (ALK1-6)
T3 sequence (P52333 1-1124): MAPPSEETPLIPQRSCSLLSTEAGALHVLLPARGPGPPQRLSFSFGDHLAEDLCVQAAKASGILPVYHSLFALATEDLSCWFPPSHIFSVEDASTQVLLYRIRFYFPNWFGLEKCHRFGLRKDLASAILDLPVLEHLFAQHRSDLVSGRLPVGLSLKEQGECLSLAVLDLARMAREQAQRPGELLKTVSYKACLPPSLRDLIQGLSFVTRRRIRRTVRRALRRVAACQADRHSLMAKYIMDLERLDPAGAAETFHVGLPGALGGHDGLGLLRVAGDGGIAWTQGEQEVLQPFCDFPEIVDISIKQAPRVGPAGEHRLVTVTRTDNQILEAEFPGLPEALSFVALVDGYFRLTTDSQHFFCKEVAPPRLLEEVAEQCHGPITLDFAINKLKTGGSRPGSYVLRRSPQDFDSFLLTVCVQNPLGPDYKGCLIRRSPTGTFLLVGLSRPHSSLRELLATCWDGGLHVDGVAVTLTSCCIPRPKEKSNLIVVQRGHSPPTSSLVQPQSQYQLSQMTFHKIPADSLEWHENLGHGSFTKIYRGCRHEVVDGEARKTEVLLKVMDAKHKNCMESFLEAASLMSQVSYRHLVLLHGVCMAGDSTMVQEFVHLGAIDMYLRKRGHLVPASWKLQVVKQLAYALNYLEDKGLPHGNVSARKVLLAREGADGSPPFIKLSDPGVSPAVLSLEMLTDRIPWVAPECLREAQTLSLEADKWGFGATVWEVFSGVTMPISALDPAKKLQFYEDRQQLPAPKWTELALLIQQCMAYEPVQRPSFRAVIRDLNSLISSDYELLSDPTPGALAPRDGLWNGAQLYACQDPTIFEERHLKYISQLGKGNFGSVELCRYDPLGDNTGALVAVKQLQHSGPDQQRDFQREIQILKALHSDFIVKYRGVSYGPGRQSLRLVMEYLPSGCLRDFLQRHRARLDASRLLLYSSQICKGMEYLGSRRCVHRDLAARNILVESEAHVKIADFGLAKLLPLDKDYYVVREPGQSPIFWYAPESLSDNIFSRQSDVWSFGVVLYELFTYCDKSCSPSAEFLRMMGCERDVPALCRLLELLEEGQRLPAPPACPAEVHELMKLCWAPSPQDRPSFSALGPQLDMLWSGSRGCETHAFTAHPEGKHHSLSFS
In short: as §1

[4] = target: T4, MNK2 (Homo sapiens, UniProt Q9HBH9)
T4 construct: purchased Nanosyn (enzymatic panel); SGC in-house recombinant human kinases (DSF panel); Invitrogen (ALK1-6)
T4 sequence (Q9HBH9 whole entry): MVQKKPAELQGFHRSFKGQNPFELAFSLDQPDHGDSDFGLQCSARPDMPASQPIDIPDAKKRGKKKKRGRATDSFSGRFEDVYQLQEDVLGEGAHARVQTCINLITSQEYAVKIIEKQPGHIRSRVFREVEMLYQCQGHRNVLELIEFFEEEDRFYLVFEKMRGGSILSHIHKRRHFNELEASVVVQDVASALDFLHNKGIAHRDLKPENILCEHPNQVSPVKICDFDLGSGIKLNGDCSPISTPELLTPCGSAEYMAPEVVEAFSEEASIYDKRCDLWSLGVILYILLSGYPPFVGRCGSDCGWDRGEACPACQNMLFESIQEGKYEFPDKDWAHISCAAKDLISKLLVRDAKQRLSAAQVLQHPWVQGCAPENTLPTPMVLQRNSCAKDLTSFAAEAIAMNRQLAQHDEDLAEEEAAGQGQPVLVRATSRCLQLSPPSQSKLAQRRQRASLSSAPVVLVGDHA
In short: as §1

[5] = target: T5, PRKD1 (Homo sapiens, UniProt Q15139)
T5 construct: purchased Nanosyn (enzymatic panel); SGC in-house recombinant human kinases (DSF panel); Invitrogen (ALK1-6)
T5 sequence (Q15139 1-912): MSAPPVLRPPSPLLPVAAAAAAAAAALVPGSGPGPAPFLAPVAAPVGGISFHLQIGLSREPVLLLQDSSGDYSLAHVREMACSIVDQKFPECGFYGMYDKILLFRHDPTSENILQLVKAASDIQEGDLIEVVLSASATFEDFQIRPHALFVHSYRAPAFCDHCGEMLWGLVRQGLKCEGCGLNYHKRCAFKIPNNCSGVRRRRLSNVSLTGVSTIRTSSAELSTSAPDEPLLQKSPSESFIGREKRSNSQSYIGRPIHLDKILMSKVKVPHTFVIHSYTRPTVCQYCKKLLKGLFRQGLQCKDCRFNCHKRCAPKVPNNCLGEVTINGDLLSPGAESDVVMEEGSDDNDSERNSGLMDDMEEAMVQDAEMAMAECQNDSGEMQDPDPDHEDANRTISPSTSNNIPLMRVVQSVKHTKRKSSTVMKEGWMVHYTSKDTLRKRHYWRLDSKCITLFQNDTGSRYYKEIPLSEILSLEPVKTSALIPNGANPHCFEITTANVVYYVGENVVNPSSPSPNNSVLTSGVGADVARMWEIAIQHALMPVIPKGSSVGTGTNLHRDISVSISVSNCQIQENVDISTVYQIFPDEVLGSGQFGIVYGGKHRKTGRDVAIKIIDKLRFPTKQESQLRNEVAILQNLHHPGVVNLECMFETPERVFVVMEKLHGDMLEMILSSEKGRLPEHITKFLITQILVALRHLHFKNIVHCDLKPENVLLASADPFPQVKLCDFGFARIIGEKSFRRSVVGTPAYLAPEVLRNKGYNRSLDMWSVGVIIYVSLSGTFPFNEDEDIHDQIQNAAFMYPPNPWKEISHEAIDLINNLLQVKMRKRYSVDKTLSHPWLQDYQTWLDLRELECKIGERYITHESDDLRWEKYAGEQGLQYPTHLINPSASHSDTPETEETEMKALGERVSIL
In short: as §1

SMILES | inhibition at 0.1 µM [1] | inhibition at 1 µM [1] | inhibition at 0.1 µM [2] | inhibition at 1 µM [2] | inhibition at 0.1 µM [3] | inhibition at 1 µM [3] | inhibition at 0.1 µM [4] | inhibition at 1 µM [4] | inhibition at 0.1 µM [5] | inhibition at 1 µM [5]
COc1cc(-c2cc(-c3cccc(O)c3)cnc2N)cc(OC)c1OC [K02288, 3-[6-amino-5-(3,4,5-trimethoxy-phenyl)-pyridin-3-yl]-phenol] | -2% | -1% | 0.2% | -3% | 5.6% | 2.3% | 1.9% | 3.2% | 0% | 6.1%
c1ccc2c(-c3cnn4cc(-c5ccc(N6CCNCC6)cc5)cnc34)ccnc2c1 [LDN-193189] | 1% | 1.8% | 1.8% | 0.8% | 0% | 0.1% | 3.7% | 31% | 4.6% | 15%
